Experimental data as given in patent publication US7858635B2 (priority 2005, dated 2010).
Read-outs that look alike come from different tables or passages of the source.

Tests used:
M1 muscarinic receptor = target: T1, M1 muscarinic receptor (Homo sapiens, UniProt P11229); assay: Functional mobilization of intracellular calcium (FLIPR, Fluo-3), M1-CHO cells; format: cell-based; conditions: for Emax: read-out: M1 Efficacy
T1 construct: expressed in transfected cells; host or cells: CHO cells (M1-CHO, under zeocin and G418 selection)
T1 sequence (P11229 1-460): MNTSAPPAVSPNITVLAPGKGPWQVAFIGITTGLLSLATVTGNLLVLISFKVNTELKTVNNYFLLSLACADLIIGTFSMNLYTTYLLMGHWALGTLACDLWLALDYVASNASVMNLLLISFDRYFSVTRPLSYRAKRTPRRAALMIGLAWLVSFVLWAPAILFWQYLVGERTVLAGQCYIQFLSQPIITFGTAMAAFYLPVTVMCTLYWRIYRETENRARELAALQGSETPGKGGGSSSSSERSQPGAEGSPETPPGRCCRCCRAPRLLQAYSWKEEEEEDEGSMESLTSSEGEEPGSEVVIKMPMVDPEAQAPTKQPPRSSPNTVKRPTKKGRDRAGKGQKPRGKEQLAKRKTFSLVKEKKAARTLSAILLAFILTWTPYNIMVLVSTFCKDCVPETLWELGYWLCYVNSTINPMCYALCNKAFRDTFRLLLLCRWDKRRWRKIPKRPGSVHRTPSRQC
How it was run: (§1)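 CHO lines stably carrying the muscarinic subtype, dye-loaded with Fluo-3 at 37° C for 60-90 min, receive test compound in 0.5% DMSO. Agonist effects are read directly; antagonist effects against carbachol at EC80 after 15 min pre-incubation.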

M4 muscarinic receptor = target: T2, M4 muscarinic receptor (Homo sapiens, UniProt P08173); assay: Functional mobilization of intracellular calcium (FLIPR, Fluo-3), M4-CHO cells; format: cell-based; conditions: for Emax: read-out: M4 Efficacy
T2 construct: expressed in transfected cells; host or cells: CHO cells (M4-CHO, under puromycin, zeocin and blasticidin selection)
T2 sequence (P08173 1-479): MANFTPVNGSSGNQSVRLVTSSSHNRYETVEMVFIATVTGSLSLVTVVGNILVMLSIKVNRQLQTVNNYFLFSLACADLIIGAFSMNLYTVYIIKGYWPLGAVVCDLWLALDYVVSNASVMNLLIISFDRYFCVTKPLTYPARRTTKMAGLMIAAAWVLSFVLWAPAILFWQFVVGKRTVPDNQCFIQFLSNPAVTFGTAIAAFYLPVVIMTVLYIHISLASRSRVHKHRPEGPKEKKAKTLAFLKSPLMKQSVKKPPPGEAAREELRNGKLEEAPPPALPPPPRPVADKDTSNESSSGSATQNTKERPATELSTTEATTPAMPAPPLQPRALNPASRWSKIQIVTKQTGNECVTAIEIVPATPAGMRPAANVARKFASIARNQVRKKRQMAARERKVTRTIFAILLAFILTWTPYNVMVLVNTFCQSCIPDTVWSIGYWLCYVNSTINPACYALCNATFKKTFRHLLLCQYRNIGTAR
How it was run: as §1

[1] = compound nos. 1-454, 100% efficacy is the maximum response obtained with the Carbachol control
[2] = compound nos. 1-454, M1-CHO cells, calcium mobilization
[3] = compound nos. 1-454, M4-CHO cells, calcium mobilization
[4] = compound nos. 455-509, 100% efficacy is the maximum response obtained with the Carbachol control

Row | SMILES | Emax (M1 muscarinic receptor; [1]) | M1 Activity (M1 muscarinic receptor; [2]) | Emax (M4 muscarinic receptor; [1]) | M4 Activity (M4 muscarinic receptor; [3]) | further results
1 | C=Cc1ccc2c(c1)C1(CCN(C3CCN(C(=O)OCC)CC3)CC1)CN2C(C)=O [compound 11] | < 65% | + (activity was measured to be greater than or equal to 3.0 μM) | < 55% | + (activity was measured to be greater than or equal to 4.0 μM) | 
2 | CC(C)OC(=O)N1C2CCC1CC(N1CCC3(CCc4ccccc43)CC1)C2 (centres unmarked) [compound 285] | < 65% | ++ (activity was measured to be between 0.7 μM and 3.0 μM) | < 55% | + (activity was measured to be greater than or equal to 4.0 μM) | 
3 | CC(=O)N1CC2(CCN(C3CCN(C(=O)O[C@H]4CCOC4)CC3)CC2)c2cc(C)ccc21 [compound 398] | < 65% |  | < 55% |  | M1 Activity (M1 muscarinic receptor; compound nos. 1-454): ++ (activity was measured to be between 0.7 μM and 3.0 μM); M4 Activity (M4 muscarinic receptor; compound nos. 1-454): + (activity was measured to be greater than or equal to 4.0 μM)
4 | CCOC(=O)N1C2CCC1CC(N1CCC3(CC1)CN(C(=O)C(C)C)c1ccc(F)cc13)C2 (centres unmarked) [compound 390] | 65 to 85% |  | < 55% |  | M1 Activity (M1 muscarinic receptor; compound nos. 1-454): +++ (activity was measured to be less than or equal to 0.7 μM); M4 Activity (M4 muscarinic receptor; compound nos. 1-454): + (activity was measured to be greater than or equal to 4.0 μM)
5 | CCOC(=O)N1CCC(N2CCC3(CC2)CN(C(=O)C(C)C)c2ccc(F)cc23)CC1 [compound 142] | 65 to 85% | +++ (activity was measured to be less than or equal to 0.7 μM) | > 70% | + (activity was measured to be greater than or equal to 4.0 μM) | 
6 | CCc1nsc(N2CCC(N3CCC4(CCN(C(=O)N(C)C)c5ccccc54)CC3)CC2)n1 [compound 455] |  |  |  |  | Emax (M1 muscarinic receptor; [4]): > 100%; M1 Activity (M1 muscarinic receptor; compounds 455-509): +++ (activity was measured to be less than or equal to 2.0 μM); Emax (M4 muscarinic receptor; [4]): 25 to 100%; M4 Activity (M4 muscarinic receptor; compounds 455-509): ++ (activity was measured to be between 2.0 μM and 5.0 μM)
7 | CCOC(=O)N1CCC(N2CCC3(CC2)CN(C(=O)N(C)C)c2ccc(F)cc23)CC1 [compound 39] | 65 to 85% | +++ (activity was measured to be less than or equal to 0.7 μM) | > 70% | ++ (activity was measured to be between 0.1 μM and 4.0 μM) | 
8 | COC(=O)N1CCC(CN2CCC3(CC2)C[C@H](NC(C)=O)c2ccccc23)CC1 [compound 182] | 65 to 85% | + (activity was measured to be greater than or equal to 3.0 μM) | 55 to 70% | + (activity was measured to be greater than or equal to 4.0 μM) | 
9 | CC(=O)N1CC2(CCN(C3CC4CCC(C3)N4C(=O)OC3CCC3)CC2)c2cc(F)ccc21 (centres unmarked) [compound 174] | > 85% | +++ (activity was measured to be less than or equal to 0.7 μM) | 55 to 70% | + (activity was measured to be greater than or equal to 4.0 μM) | 
10 | CC=CCOC(=O)N1C2CCC1CC(N1CCC3(CC1)CN(C(=O)N(C)C)c1ccc(F)cc13)C2 (centres unmarked) [compound 200] | 65 to 85% | ++ (activity was measured to be between 0.7 μM and 3.0 μM) | < 55% | + (activity was measured to be greater than or equal to 4.0 μM) | 
11 | CC(C)NC(=O)N1C2CCC1CC(N1CCC3(CC1)COc1ccc(F)cc13)C2 (centres unmarked) [compound 289] | < 65% | +++ (activity was measured to be less than or equal to 0.7 μM) | < 55% | + (activity was measured to be greater than or equal to 4.0 μM) | 
12 | CCOC(=O)N1CCC(N2CCC3(CC2)CN(C(C)=O)c2ccc(-c4ccccc4C)cc23)CC1 [compound 78] | 65 to 85% | +++ (activity was measured to be less than or equal to 0.7 μM) | < 55% | ++ (activity was measured to be between 0.1 μM and 4.0 μM) | 
13 | Cc1cc(C(=O)N2CC3(CCN(C4CC5CCC(C4)N5C(=O)O[C@H]4CCOC4)CC3)c3cc(F)ccc32)nn1C (some centres unmarked) [compound 233] | 65 to 85% | +++ (activity was measured to be less than or equal to 0.7 μM) | > 70% | +++ (activity was measured to be less than or equal to 0.1 μM) | 
14 | CCCCOC(=O)N1CC2(CCN(C3CCN(C(=O)OCC)CC3)CC2)c2cc(F)ccc21 [compound 220] | 65 to 85% | + (activity was measured to be greater than or equal to 3.0 μM) | < 55% | + (activity was measured to be greater than or equal to 4.0 μM) | 
15 | Clc1ccc2c(c1)C1(CCN(CC3CCOCC3)CC1)CO2 [compound 415] | < 65% |  | < 55% |  | M1 Activity (M1 muscarinic receptor; compound nos. 1-454): + (activity was measured to be greater than or equal to 3.0 μM); M4 Activity (M4 muscarinic receptor; compound nos. 1-454): + (activity was measured to be greater than or equal to 4.0 μM)
16 | Cc1ccc2c(c1)C1(CCN(C3CC4CCC3C4)CC1)CN2C(=O)C1CC1 (centres unmarked) [compound 51] | 65 to 85% | +++ (activity was measured to be less than or equal to 0.7 μM) | 55 to 70% | ++ (activity was measured to be between 0.1 μM and 4.0 μM) | 
17 | CCc1nsc(N2CCC(N3CCC4(CC3)C[C@H](N(C)C(C)=O)c3ccccc34)CC2)n1 [compound 484] |  |  |  |  | Emax (M1 muscarinic receptor; [4]): > 100%; M1 Activity (M1 muscarinic receptor; compounds 455-509): +++ (activity was measured to be less than or equal to 2.0 μM); Emax (M4 muscarinic receptor; [4]): 25 to 100%; M4 Activity (M4 muscarinic receptor; compounds 455-509): ++ (activity was measured to be between 2.0 μM and 5.0 μM)
18 | Cc1nsc(N2C3CCC2CC(N2CCC4(CCN(C(=O)N(C)C)c5ccccc54)CC2)C3)n1 (centres unmarked) [compound 501] |  |  |  |  | Emax (M1 muscarinic receptor; [4]): > 100%; M1 Activity (M1 muscarinic receptor; compounds 455-509): +++ (activity was measured to be less than or equal to 2.0 μM); Emax (M4 muscarinic receptor; [4]): 25 to 100%; M4 Activity (M4 muscarinic receptor; compounds 455-509): ++ (activity was measured to be between 2.0 μM and 5.0 μM)
19 | CCCOC(=O)N1C2CCC1CC(N1CCC3(CC1)COc1ccc(F)cc13)C2 (centres unmarked) [compound 283] | 65 to 85% | ++ (activity was measured to be between 0.7 μM and 3.0 μM) | 55 to 70% | + (activity was measured to be greater than or equal to 4.0 μM) | 
20 | CC(C)C(=O)N(C)[C@H]1CC2(CCN(C[C@H]3C[C@H]4CC[C@H]3C4)CC2)c2ccccc21 [compound 246] | < 65% | ++ (activity was measured to be between 0.7 μM and 3.0 μM) | > 70% | ++ (activity was measured to be between 0.1 μM and 4.0 μM) | 
21 | CCOC(=O)N1CCC(N2CCC3(CC2)CN(C(C)=O)c2ccc(OC(F)(F)F)cc23)CC1 [compound 225] | < 65% | + (activity was measured to be greater than or equal to 3.0 μM) | < 55% | + (activity was measured to be greater than or equal to 4.0 μM) | 
22 | CN(C)C(=O)N1CC2(CCN(C3CC4CCC(C3)N4C(=O)O[C@@H]3CCOC3)CC2)c2cc(F)ccc21 (some centres unmarked) [compound 188] | < 65% | + (activity was measured to be greater than or equal to 3.0 μM) | 55 to 70% | + (activity was measured to be greater than or equal to 4.0 μM) | 
23 | CC(=O)N1CC2(CCN(CC3CCN(C(=O)O[C@@H]4CCOC4)CC3)CC2)c2cc(F)ccc21 [compound 82] |  | +++ (activity was measured to be less than or equal to 0.7 μM) |  | ++ (activity was measured to be between 0.1 μM and 4.0 μM) | M1 Efficacy (M1 muscarinic receptor; [1]): ++ (efficacy was calculated to be between 85% and 65%); M4 Efficacy (M4 muscarinic receptor; [1]): ++ (efficacy was calculated to be between 70% and 55%)
